Data as given in patent US7572765B2, “Conformationally constrained parathyroid hormone (PTH) analogs” (The General Hospital Corporation, priority 2001, dated 2009).
Square brackets hold non-standard residues; d marks the D form. Peptide text beside a SMILES is read from it. hArg = N=C(N)NCCCC[C@H](N)C(=O)O; Aib = CC(C)(N)C(=O)O

Assays:
[1] = molecular target: T1, P1R-delNt, truncated human P1R deleted for residues (24-181) (Homo sapiens, UniProt Q03431); experiment: cAMP stimulation in COS-7 cells expressing hP1R-delNt; type: cell-based; conditions: for EC50 / cAMP EMax(obs.): hP1R-delNT; for cAMP EMax(obs.): basal 9.5 ± 1.3, asterisk = plateau not attained
T1 construct: expressed in transfected cells; host or cells: COS-7 (transient, FuGENE 6)
T1 sequence (Q03431 with tags, fused parts or gaps limits assumed): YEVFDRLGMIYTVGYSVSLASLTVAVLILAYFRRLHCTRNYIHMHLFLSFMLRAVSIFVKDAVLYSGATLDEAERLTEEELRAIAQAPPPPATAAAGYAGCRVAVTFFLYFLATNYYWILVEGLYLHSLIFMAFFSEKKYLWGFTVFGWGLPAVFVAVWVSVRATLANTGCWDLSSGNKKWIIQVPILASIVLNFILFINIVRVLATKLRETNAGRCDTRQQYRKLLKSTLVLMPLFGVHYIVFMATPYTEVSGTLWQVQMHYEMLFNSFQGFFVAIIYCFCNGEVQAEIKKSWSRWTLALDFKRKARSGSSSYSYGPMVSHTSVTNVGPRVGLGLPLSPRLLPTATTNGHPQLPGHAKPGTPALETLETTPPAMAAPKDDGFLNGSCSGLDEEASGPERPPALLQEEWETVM
Experimental: (§1) Cell Culture. The cell line HKRK-B28 (Takasu, H., et al., J. Bone Miner. Res. 14:11-20 (1999)) was derived from the porcine kidney cell line, LLC-PK1 by stable transfection with plasmid DNA encoding the human P1R and expresses ˜280,000 receptors per cell. These cells, as well as COS-7 cells and SaOS-2-B10 cells, were cultured at […] in T-75 flasks ([…]) in Dulbecco's modified Eagle's medium (DMEM) supplemented with fetal bovine serum (10%), penicillin G (20 units/ml), streptomycin sulfate (20 μg/ml) and amphotericin B (0.05 μg/ml) in a humidified atmosphere containing 5% CO2. Stock solutions of EGTA/trypsin and antibiotics were from GIBCO; fetal bovine serum was from Hyclone Laboratories (Logan, Utah). COS-7 cells sub-cultured in 24-well plates were transfected with plasmid DNA (200 ng per well) encoding the wild-type human P1R or truncated human P1R deleted for residues (24-181) (Shimizu, M., et al., J. Biol. Chem. 275:21836-21843 (2000)) that was purified by cesium chloride/ethidium bromide density gradient centrifugation, and FuGENE 6 transfection reagent (Roche Indianapolis Ind.) according to the manufacturer's recommended procedure. All cells, in 24-well plates, were treated with fresh media and shifted to 33° C. for 12 to 24 h prior to assay.
(§2) cAMP Stimulation. Stimulation of cells with peptide analogs was performed in 24-well plates. Cells were rinsed with 0.5 mL of binding buffer (50 mM Tris-HCI, […], 5 mM KCl, 2 mM CaCl2, 5% heat-inactivated horse serum, 0.5% fetal bovine serum, adjusted to pH 7.5 with HCl) and treated with 200 μL of cAMP assay buffer (Delbecco's modified Eagle's medium containing 2 mM 3-isobutyl-1-methylxanthine, 1 mg/mL bovine serum albumin, 35 mM Hepes-NaOH, pH 7.4) and 100 μL of binding buffer containing varying amounts of peptide analog (final volume=300 μL). The medium was removed after incubation for 30 to 60 minutes at room temperature, and the cells were frozen on dry ice, lysed with 0.5 mL 50 mM HCl, and refrozen ([…]). The cAMP content of the diluted lysate was determined by radioimmunoassay. The EC50 response values were calculated using nonlinear regression (see below).
(§3) Data Calculation. Calculations were performed using Microsoft® Excel. Nonlinear regression analyses of binding and cAMP dose-response data were performed using the four-parameter equation: yp=Min+[(Max−Min)/(1+(IC50/x)^slope)]. The Excel Solver function was utilized for parameter optimization, as described previously (Carter, P. H., et al., Endocrinology 140: 4972-4981 (1999); Bowen, W. P., and Jerman, J. C., Trends in Pharmacol. Sci. 16: 413-417 (1995)). Differences between paired data sets were statistically evaluated using a one-tailed Student's t-test, assuming unequal variances for the two sets.
The possibility that the activity-enhancing effects of the Aib substitutions at positions 1 and 3 were mediated through the juxtamembrane (J) region of the receptor was investigated in COS-7 cells transiently transfected with P1R-delNt. P1R-delNt was a truncated P1R that lacked most of the amino-terminal extracellular domain.

[2] = molecular target: T1, P1R-delNt, truncated human P1R deleted for residues (24-181); experiment: Competition binding in COS-7 cells expressing hP1R-delNt; conditions: for Binding IC50 / IC50: COS-7 cells, hP1R-delNT, tracer 125I-[Aib^1,3,M]PTH(1-21), N.B. = no inhibition of tracer binding
[3] = molecular target: T2, wild-type human P1R (hP1R-WT) (Homo sapiens, UniProt Q03431); experiment: Stimulation of inositol phosphate production (PLC) in COS-7 cells expressing hP1R-WT; type: cell-based; conditions: for PLC EMAX(obs.) / EC50: hP1R-WT; for EC50: dash = no PLC response observed
T2 construct: expressed in transfected cells; host or cells: COS-7 (transient, FuGENE 6)
T2 sequence (Q03431 27-593): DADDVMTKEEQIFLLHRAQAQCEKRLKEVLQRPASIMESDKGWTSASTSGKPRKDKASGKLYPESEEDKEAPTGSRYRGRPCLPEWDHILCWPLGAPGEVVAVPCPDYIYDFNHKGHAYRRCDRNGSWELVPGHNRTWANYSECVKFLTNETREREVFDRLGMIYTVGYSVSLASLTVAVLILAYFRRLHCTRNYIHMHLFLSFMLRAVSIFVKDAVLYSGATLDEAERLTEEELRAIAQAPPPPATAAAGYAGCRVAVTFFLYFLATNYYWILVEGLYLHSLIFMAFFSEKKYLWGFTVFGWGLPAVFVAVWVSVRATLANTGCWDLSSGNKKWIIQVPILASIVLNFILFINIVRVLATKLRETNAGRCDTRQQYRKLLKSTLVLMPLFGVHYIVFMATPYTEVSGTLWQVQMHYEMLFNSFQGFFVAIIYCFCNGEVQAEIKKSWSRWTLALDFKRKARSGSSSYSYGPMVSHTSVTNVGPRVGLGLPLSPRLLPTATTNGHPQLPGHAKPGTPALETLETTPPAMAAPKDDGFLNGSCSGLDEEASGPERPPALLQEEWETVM
Experimental: as §1
Stimulation of Inositol Phosphate Production. COS-7 cells transfected as above with P1R-WT were treated with serum-free, inositol-free DMEM containing 0.1% bovine serum albumin and [^3H]myo-inositol (NEN, Boston, Mass.) (2 μCi/mL) for 16 h prior to assay. At the time of the assay, the cells were rinsed with binding buffer containing LiCl (30 mM) and treated with the same buffer with or without a PTH analog. The cells were then incubated at 37° C. for 40 min, after which the buffer was removed and replaced by 0.5 mL of ice cold 5% trichloroacetic acid solution. After 3 h on ice, the lysate was collected and extracted twice with ethyl ether. The lysate was then applied to an ion exchange column (0.5 mL resin bed) and the total inositol phosphates were eluted as described previously (Berridge, M. J., et al., Biochem. J. 212:473-482 (1983)), and counted in liquid scintillation cocktail.

[4] = molecular target: T2, wild-type human P1R (hP1R-WT); experiment: cAMP stimulation in COS-7 cells expressing hP1R-WT; type: cell-based; conditions: for EC50 / cAMP EMax(obs.): hP1R-WT; for cAMP EMax(obs.): basal 10.3 ± 1.1, asterisk = plateau not attained
Experimental: as §1, §2, §3

Molecule	cAMP potency, fold weaker on P1R-delNt than P1R-WT [1] [fold]	EC50 [1] [nM]	cAMP EMax(obs.) [1] [pmole/well]	Binding IC50 [2]	increase in IP formation ([3]; P1R-WT) [fold]	PLC EMAX(obs.) [3] [foldxbasal]	EC50 [3] [nM]	cAMP EMax ([4]; P1R-WT) [picomole/well]	EC50 [4] [nM]	cAMP EMax(obs.) [4] [pmole/well]	IC50 [2] [nM]	cAMP EMax ([1]; P1R-delNt) [picomole/well]	cAMP potency, fold more potent than [M]PTH(1-14) ([1]; P1R-delNt) [fold]	binding affinity, fold stronger than [M]PTH(1-14) ([2]; P1R-delNt) [fold]	difference in affinity between [Aib^1,3,M]PTH(1-14) and [Aib^1,3,M]PTH(1-21) ([2]; P1R-delNt) [fold]	PLC potency, fold more potent than [M]PTH(1-14) ([3]; P1R-WT) [fold]	Binding IC50 ([2]; listed as native PTH(1-14))
CCCC[C@H](NC(=O)[C@H](CCCNC(=N)N)NC(=O)[C@H](CCC(=O)O)NC(=O)[C@@H](NC(=O)[C@H](CO)NC(=O)[C@H](C)NC(=O)[C@H](CC(C)C)NC(=O)[C@H](Cc1c[nH]cn1)NC(=O)[C@H](CCCCN)NC(=O)CNC(=O)[C@H](CC(C)C)NC(=O)[C@H](CC(N)=O)NC(=O)[C@H](Cc1c[nH]cn1)NC(=O)[C@H](CCCC)NC(=O)[C@H](CC(C)C)NC(=O)[C@H](CCC(N)=O)NC(=O)[C@@H](NC(=O)[C@H](CCC(=O)O)NC(=O)[C@H](CO)NC(=O)[C@@H](NC(=O)[C@H](C)N)C(C)C)[C@@H](C)CC)C(C)C)C(=O)N[C@@H](CCC(N)=O)C(=O)N[C@@H](Cc1c[nH]c2ccccc12)C(=O)N[C@@H](CC(C)C)C(=O)N[C@@H](CCCNC(=N)N)C(=O)N[C@@H](CCCCN)C(=O)N[C@@H](CCCCN)C(=O)N[C@@H](CC(C)C)C(=O)N[C@@H](CCC(N)=O)C(=O)N[C@@H](CC(=O)O)C(=O)N[C@H](C(=O)N[C@@H](Cc1c[nH]cn1)C(=O)N[C@@H](CC(N)=O)C(=O)N[C@@H](Cc1ccc(O)cc1)C(N)=O)C(C)C [PTH(1-34), [Nle^8,21, Tyr^34]PTH(1-34)amide, reference compound]	~500	680 ± 110	220 ± 30	N.B.	4	4.2 ± 0.6	17 ± 2	240±50	1.4 ± 0.7	240 ± 50							
CC[C@H](C)[C@H](NC(=O)[C@H](CCC(=O)O)NC(=O)C(C)(C)NC(=O)[C@@H](NC(=O)C(C)(C)N)C(C)C)C(=O)N[C@@H](CCC(N)=O)C(=O)N[C@@H](CC(C)C)C(=O)N[C@@H](CCSC)C(=O)N[C@@H](Cc1c[nH]cn1)C(=O)N[C@@H](CCC(N)=O)C(N)=O [[Aib^1,3,M]PTH(1-10), [Aib^1,3,Gln^10]PTH(1-10)] (H-[Aib]V[Aib]EIQLMHQ-NH2)			84 ± 4	N.B.						120 ± 10							
CC[C@H](C)[C@H](NC(=O)[C@H](CCC(=O)O)NC(=O)C(C)(C)NC(=O)[C@@H](NC(=O)C(C)(C)N)C(C)C)C(=O)N[C@@H](CCC(N)=O)C(=O)N[C@@H](CC(C)C)C(=O)N[C@@H](CCSC)C(=O)N[C@@H](Cc1c[nH]cn1)C(=O)N[C@@H](CCC(N)=O)C(=O)N[C@@H](CCCCNC(=N)N)C(N)=O [[Aib^1,3,M]PTH(1-11), AibValAibGluIleGlnLeuMetHisGlnHar] (H-[Aib]V[Aib]EIQLMHQ[hArg]-NH2)			220 ± 20							190 ± 40	13000						
CC[C@H](C)[C@H](NC(=O)[C@H](CCC(=O)O)NC(=O)C(C)(C)NC(=O)[C@@H](NC(=O)C(C)(C)N)C(C)C)C(=O)N[C@@H](CCC(N)=O)C(=O)N[C@@H](CC(C)C)C(=O)N[C@@H](CCSC)C(=O)N[C@@H](Cc1c[nH]cn1)C(=O)N[C@@H](CCC(N)=O)C(=O)N[C@@H](CCCCNC(=N)N)C(=O)N[C@@H](C)C(=O)N[C@@H](CCCCN)C(=O)N[C@@H](Cc1c[nH]c2ccccc12)C(N)=O [[Aib^1,3,M]PTH(1-14), AibValAibGluIleGlnLeuMetHisGlnHarAlaLysTrp] (H-[Aib]V[Aib]EIQLMHQ[hArg]AKW-NH2)		0.73 ± 0.16	250 ± 20	effectively inhibited the binding	4	4.3 ± 0.6	71 ± 9		1.2 ± 0.6	240 ± 40	~1500	250±20	55	~10	50	66	
CC[C@H](C)[C@H](NC(=O)[C@H](CCC(=O)O)NC(=O)[C@H](C)NC(=O)[C@@H](NC(=O)[C@H](C)N)C(C)C)C(=O)N[C@@H](CCC(N)=O)C(=O)N[C@@H](CC(C)C)C(=O)N[C@@H](CCSC)C(=O)N[C@@H](Cc1c[nH]cn1)C(=O)N[C@@H](CCC(N)=O)C(=O)N[C@@H](CCCCNC(=N)N)C(=O)N[C@@H](C)C(=O)N[C@@H](CCCCN)C(=O)N[C@@H](Cc1c[nH]c2ccccc12)C(N)=O [[M]PTH(1-14), [Ala^3,12,Gln^10,Har^11,Trp^14]PTH(1-14)amide, reference compound] (H-AVAEIQLMHQ[hArg]AKW-NH2)			220 ± 20		4	3.9 ± 0.5				240 ± 50							
H-AVSEIQLMHNLGKH-NH2 [PTH(1-14), reference compound]			110 ± 10	N.B.						140 ± 30							failed to inhibit tracer binding
